Measured values published in patent US20100203634A1, “Inhibition of stem cell differentiation, enhancement of proliferation and selective induction of apoptosis by Wnt factors” (DeltaCell B.V., priority 2003, published 2010).
Entries after “also recorded” stand apart in the source; their conditions may differ.

How the values were obtained:
[1] = system: mesenchyme and epithelium of fetal lung explants; assay: Apoptosis in lung explants by H/E histology (picnotic nuclei); assay type: cell-based, mouse
Experimental: The (fetal) murine lung explant culture was generated according to our standard protocol. Briefly, complete lungs or individually dissected lung lobes were isolated from fetal mice and cultured for one to five days in a hanging drop culture system. The Wnt3a polypeptide was administered to the culture medium in different concentrations, ranging from 0 to 4000 ng/ml. The effect of this treatment was monitored by stereomicroscopy. The lung explant cultures were subsequently fixed for 30 minutes in 10% paraformaldehyde (PFA), 30 minutes in 2% PFA and 30 minutes in 4% PFA. After fixation, the lung explants were dehydrated through an increasing series of 2-isopropanol and subsequently embedded in paraffin. For the histological analysis, 4 μm thick sections were cut and stained with Hematoxilin and Eosin using standard techniques.
In order to determine the concentration range in which the Wnt3a polypeptide is effective, total lung explants were cultured in the presence of Wnt3a in a range of 0 ng/ml, 500 ng/ml, 750 ng/ml, 1000 ng/ml, 2000 ng/ml and 4000 ng/ml (FIG. 2, Panels A-R).
After two days of culture, these lung explants were fixed and embedded in paraffin for immunohistological analysis.
To more exactly determine the concentration of Wnt3a that is effective upon lung development, differentiation and apoptosis, fetal lung explants were cultured for a longer period (four days) in the presence of lower concentrations of Wnt3a, i.e., 0 ng/ml, 4 ng/ml, 20 ng/ml, 100 ng/ml and 500 ng/ml (FIG. 4, Panels A-O).

[2] = system: fetal lung explants (E12.5); assay: Quantification of cell proliferation using phospho histon H3 immunohistochemistry; assay type: cell-based, mouse
Experimental: The number of cells undergoing mitosis was measured using immunohistochemical detection of phosphorylated histon H3, which is present only on condensed chromosomes during mitosis. Per condition, at least four different lung explants were treated and in total, 20 sections per condition were counted for phospho histon H3-positive cells by two different investigators. The primary antibody against phopho histon H3 (Ser10, clone 6G3) was purchased from Cell Signaling Technology and used according to the recommendations of the supplier.
To further determine the short-term effect of different Wnt3A concentrations upon the induction of proliferation, lung explants (E12.5) were cultured for one day with 0, 30, 125 and 500 ng/ml Wnt3a.
The lung explants were processed for immunohistochemical analysis and stained for Histon H3 phosphorylation, which can be used as a quantifiable cell proliferation marker as it is present in a fixed amount on condensed chromosomes only during active cell division (material and methods). […] However, most of the increase in proliferation could be accounted to the mesenchyme, where an increase in 40 to 60% of cells undergoing […] was observed.

Substance: Wnt3a
- apoptosis in the epithelium ([1]; 750 ng/ml, two days): no sign of apoptosis whatsoever
- apoptosis in the mesenchyme ([1]; 750 ng/ml, two days): clearly detectable but not yet abundant
- apoptosis in the epithelium ([1]; 1000 ng/ml, five days): contained no apoptotic cells
- apoptosis in the mesenchyme ([1]; 1000 ng/ml, five days): most of the mesenchymal cells surrounding the epithelium displayed picnotic nuclei; also recorded: massive induction of apoptosis in the mesenchyme
- apoptosis in the epithelium ([1]; 1000 ng/ml, two days): not detectable
- apoptosis in the epithelium ([1]; between 100 and 500 ng/ml, four days): no sign of apoptosis could be detected
- concentration at which apoptosis in the epithelium is induced ([1]; conclusion): higher than 1000 ng/ml
- concentration at which apoptosis in the mesenchyme is induced ([1]; conclusion): greater than 100 ng/ml
- effect on proliferation ([2]; 30 ng/ml, after one day): markedly increases proliferation
- increase in overall proliferation (phospho histon H3-positive cells) ([2]; 30, 125 and 500 ng/ml, one day): > 20%
- concentration at which the maximum stimulatory effect on proliferation was reached ([2]; one day): ≤ 30 ng/mL
